Data on 33 compounds can be found in patent US5389663A, “1-(1h-1,2,4-triazole-yl)-2-propanol compounds” (Takeda Chemical Industries, Ltd., priority 1991, dated 1995).

The first assay has as its system Candida albicans IFO 0583. As to the kind of experiment: Paper disc agar diffusion, growth inhibition zone, Candida albicans IFO 0583. Particulars: Candida albicans, IFO0583, 48 h, Table 5; Medium A, 28° C., two-day culture, 1000 μ/ml, 8 mm disc; read-out: Diameter of growth-inhibition zone. The format is cell-based. As to the method:
Evaluation of the antifungal activities of the compound of formula (I) was conducted by the following method: a sheet of filter paper disc (manufactured by Toyo Seisakusho, 8 mm in diameter) soaked in a […] solution of a compound of formula (I) in methanol was placed on an agar plate containing various fungi, which was incubated at 28° C. for two days, and the diameter of the growth inhibition zone around the filter paper disc was measured. The following culture media were used: A: yeast nitrogen base agar medium (pH 7.0) B: Sabouraud agar medium
cpd. No. (Medium A, 28° C., two-day culture)
On the technique in general: In agar diffusion tests the substance spreads into inoculated agar from a disc or well.
As for `C[C@H]([C@](O)(Cn1ccnc1)c1ccc(F)cc1F)S(=O)(=O)N(C)C` [Compound 85, N,N-dimethyl-[(2R,3R)-3-(2,4-difluorophenyl)-3-hydroxy-4-(1-imidazolyl)-2-butane]sulfonamide], the zone of inhibition (as a rule, the size of the clear area around the sample on an inoculated plate) at 1000 µg/mL is 45 mm. Consider `C[C@H]([C@](O)(Cn1cncn1)c1ccc(F)cc1F)S(=O)(=O)Nc1ccc(Br)cc1` [Compound 22, N-(4-bromophenyl)-[(2R, 3R)-3-(2,4-difluorophenyl)-3-hydroxy-4-(1H-1,2,4-triazol-1-yl)-2-butane]sulfonamide], for which the zone of inhibition at 1000 µg/mL was determined as 30 mm. Regarding `C#CCN(C)S(=O)(=O)[C@H](C)[C@](O)(Cn1cncn1)c1ccc(F)cc1F` [Compound 62, N-methyl-N-(2-propinyl)-[(2R,3R)-3-(2,4-difluorophenyl)-3-hydroxy-4-(1H-1,2,4-triazol-1-yl)-2-butane]sulfonamide], the zone of inhibition at 1000 µg/mL amounted to 45 mm. Still for that read-out and setting: for `C[C@H]([C@](O)(Cn1cncn1)c1ccc(F)cc1F)S(=O)(=O)N1CCN(C(=O)c2ccc(C(F)(F)F)cc2)CC1` [Compound 24, 1-[(2R,3R)-3-(2,4-difluorophenyl)-3-hydroxy-4-(1H-1,2,4-triazol-1-yl)-2-butylsulfonyl]-4-(4-trifluoromethylbenzoyl)piperazine] the value was 37 mm; for `CC(=O)N1CCN(S(=O)(=O)[C@H](C)[C@](O)(Cn2cncn2)c2ccc(F)cc2F)CC1` [Compound 25, 1-acetyl-4-[(2R,3R)-3-(2,4-difluorophenyl)-3-hydroxy-4-(1H-1,2,4-triazol-1-yl)-2-butylsulfonyl]piperazine], 30 mm; for `C[C@H]([C@](O)(Cn1cncn1)c1ccc(F)cc1F)S(=O)(=O)N(C)Cc1ccccn1` [Compound 79], 30 mm. Same read-out and setting: for `C[C@@H](N(C)S(=O)(=O)c1nccn1C)[C@](O)(Cn1cncn1)c1ccc(F)cc1F` [Compound 88] the value was 46 mm.

`C[C@H]([C@](O)(Cn1cncn1)c1ccc(F)cc1F)S(=O)(=O)N(C)C/C=C/C#CC(C)(C)C` [Compound 68, N-[(E)-6,6-dimethyl-2-hepten-4-ynyl]-N-methyl-[(2R,3R)-3-(2,4-difluorophenyl)-3-hydroxy-4-(1H-1,2,4-triazol-1-yl)-2-butane]sulfonamide]: the zone of inhibition at 1000 µg/mL was 42 mm. Still for that read-out and setting: next, `CCC(C)n1ncn(-c2ccc(N3CCN(S(=O)(=O)[C@H](C)[C@](O)(Cn4cncn4)c4ccc(F)cc4F)CC3)cc2)c1=O` (stereo partly drawn) [Compound 42, 1-[4-[2-(2-butyl)-2,3-dihydro-3-oxo-4H-1,2,4-triazol-4-yl]phenyl]-4-[(2R,3R)-3-(2,4-difluorophenyl)-3-hydroxy-4-(1H-1,2,4-triazol-1-yl)-2-butanesulfonyl]piperazine]: 40 mm; `C[C@@H](NS(=O)(=O)c1ccc(N)cc1)[C@](O)(Cn1cncn1)c1ccc(F)cc1F` [Compound 52]: 35 mm; `C[C@H]([C@](O)(Cn1cncn1)c1ccc(F)cc1F)S(=O)(=O)NCc1nncn1C` [Compound 41, N-(4-methyl-4H-1,2,4-triazol-3-ylmethyl)-[(2R,3R)-3-(2,4-difluorophenyl)-3-hydroxy-4-(1H-1,2,4-triazol-1-yl)-2-butane]sulfonamide]: 23 mm.

On to `C[C@@H](NS(=O)(=O)CCCCl)[C@](O)(Cn1cncn1)c1ccc(F)cc1F` [Compound 56], for which the zone of inhibition at 1000 µg/mL stood at 30 mm.

As for `Cc1ncsc1CCN(C)S(=O)(=O)[C@H](C)[C@](O)(Cn1cncn1)c1ccc(F)cc1F` [Compound 80], the zone of inhibition at 1000 µg/mL was 40 mm. On to `C[C@H]([C@](O)(Cn1cncn1)c1ccc(F)cc1F)S(=O)(=O)N1CCN(c2ccccn2)CC1` [Compound 74, 4-[(2R,3R)-3-(2,4-difluorophenyl)-3-hydroxy-4-(1H-1,2,4-triazol-1-yl)-2-butanesulfonyl]-1-(2-pyridyl) piperazine], for which the zone of inhibition at 1000 µg/mL was determined as 44 mm. In the case of `C[C@H]([C@](O)(Cn1cncn1)c1ccc(F)cc1F)S(=O)(=O)N(C)Cc1ccc(C(F)(F)F)cc1` [Compound 66, N-methyl-N-(4-trifluoromethylbenzyl)-[(2R,3R)-3-(2,4-difluorophenyl)-3-hydroxy-4-(1H-1,2,4-triazol-1-yl)-2-butane]sulfonamide], the zone of inhibition at 1000 µg/mL is 42 mm. As for `Cc1nnc(N(C)S(=O)(=O)[C@H](C)[C@](O)(Cn2cncn2)c2ccc(F)cc2F)s1` [Compound 81], the zone of inhibition at 1000 µg/mL was found to be 40 mm. As for `C[C@H]([C@](O)(Cn1cncn1)c1ccc(F)cc1F)S(=O)(=O)N1CCN(c2ncccn2)CC1` [Compound 45, 1-[(2R,3R)-3-(2,4-difluorophenyl)-3-hydroxy-4-(1H-1,2,4-triazol-1-yl)-2-butanesulfonyl]-4-(2-pyrimidinyl) piperazine], the zone of inhibition at 1000 µg/mL was 50 mm. On the same count and under the same terms, next, `C[C@H]([C@](O)(Cn1cncn1)c1ccc(F)cc1F)S(=O)(=O)N(C)CC#CC(C)(C)C` [Compound 63, N-(4,4-dimethyl-2-pentynyl)-N-methyl-[(2R,3R)-3-(2,4-difluorophenyl)-3-hydroxy-4-(1H-1,2,4-triazol-1-yl)-2-butane]sulfonamide]: 40 mm. As to `C[C@H]([C@](O)(Cn1cncn1)c1ccc(F)cc1F)S(=O)(=O)N1CCN(C(=O)OC(C)(C)C)CC1` [Compound 19, 1-tert-butoxycarbonyl-4-[(2R,3R)-3-(2,4-difluorophenyl)-3-hydroxy-4-(1H-i,2,4-triazol-1-yl) -2-butylsulfonyl]piperazine], the zone of inhibition at 1000 µg/mL turned out to be 40 mm. For `C[C@H]([C@](O)(Cn1cncn1)c1ccc(F)cc1F)S(=O)(=O)N1CCNCC1` [Compound 20, 1-[(2R,3R)-3-(2,4-difluorophenyl)-3hydroxy-4-(1H-2,4-triazol-1-yl)-2-butylsulfonyl]piperazine], the zone of inhibition at 1000 µg/mL worked out at 22 mm. Consider `C[C@H]([C@](O)(Cn1cncn1)c1ccc(F)cc1F)S(=O)(=O)N1CCCC1` [Compound 28, 1-[(2R,3R)-3-(2,4-difluorophenyl)-3-hydroxy-4-(1H-1,2,4-triazol-1-yl)-2-butylsulfonyl]pyrrolidine], for which the zone of inhibition at 1000 µg/mL is 50 mm.

Turning to `C[C@@H](SN1CCOCC1)[C@](O)(Cn1cncn1)c1ccc(F)cc1F` [Compound 7, N-[(2R,3R)-3-(2,4-difluorophenyl)-3-hydroxy-4-(1H-1,2,4-triazol-1-yl) -2-butylsulfenyl]morpholine], the zone of inhibition at 1000 µg/mL was 33 mm. The same measure, in the same setting: for `C[C@@H](N(C)S(=O)(=O)c1cccs1)[C@](O)(Cn1cncn1)c1ccc(F)cc1F` [Compound 90] the value was 40 mm; for `C[C@H]([C@](O)(Cn1cncn1)c1ccc(F)cc1F)S(=O)(=O)N1CCN(c2ccc(-n3cnn(CC(F)(F)F)c3=O)cc2)CC1` [Compound 44, 1-[4-[2-(2,2,2-trifluoroethyl)-2,3-dihydro-3-oxo-4H-1,2,4-triazol-4-yl]phenyl]-4-[(2R,3R)-3-(2,4-difluorophenyl)-3-hydroxy-4-(1H-1,2,4-triazol-1-yl)-2-butanesulfonyl]piperazine], 33 mm; for `C[C@@H](SN1CCN(C(=O)OC(C)(C)C)CC1)[C@](O)(Cn1cncn1)c1ccc(F)cc1F` [Compound 17, N-tert-butoxycarbonyl-4-[(2R,3R)-3-(2,4-difluorophenyl)-3-hydroxy-4-(1H-1,2,4-triazol-1-yl)-2-butylsulfenyl]piperazine], 40 mm. Same read-out and setting: next, `CCCCNS(=O)(=O)C(C)=C(Cn1cncn1)c1ccc(F)cc1F` (single isomer, unassigned) [Compound 32, N-butyl-3-(2,4-difluorophenyl)-4-(1H-1,2,4-triazol-1-yl) -2-butene-2-sulfonamide]: 12 mm; `C[C@H]([C@](O)(Cn1cncn1)c1ccc(F)cc1F)S(=O)(=O)N(C)Cc1ccccc1` [Compound 47, N-benzyl-N-methyl-[(2R,3R)-3-(2,4-difluorophenyl)-3-hydroxy-4-(1H-1,2,4-triazol-1-yl)-2-butane]sulfonamide]: 45 mm. Take `C[C@@H]([S+]([O-])N1CCN(C(=O)OC(C)(C)C)CC1)[C@](O)(Cn1cncn1)c1ccc(F)cc1F` (stereo partly drawn) [Compound 18]: the zone of inhibition at 1000 µg/mL was determined as 37 mm. Still for that read-out and setting: next, `C[C@H]([C@](O)(Cn1cncn1)c1ccc(F)cc1F)S(=O)(=O)N(C)Cc1ccc(C(F)(F)F)cc1F` [Compound 67, N-(2-fluoro-4-trifluoromethylbenzyl)-N-methyl-[(2R,3R)-3-(2,4-difluorophenyl)-3-hydroxy-4-(1H-1,2,4-triazol-1-yl)-2-butane]sulfonamide]: 42 mm; `COc1ccc(CNS(=O)(=O)[C@H](C)[C@](O)(Cn2cncn2)c2ccc(F)cc2F)cc1OC` [Compound 60, N-(3,4-dimethoxybenzyl)-[(2R,3R)-3-(2,4-difluorophenyl)-3-hydroxy-4-(1H-1,2,4-triazol-1-yl)-2-butane]sulfonamide]: 35 mm; `C[C@@H](SNC1CCCCC1)[C@](O)(Cn1cncn1)c1ccc(F)cc1F` [Compound 5]: 35 mm. Still for that read-out and setting: for `C[C@H]([C@](O)(Cn1cncn1)c1ccc(F)cc1F)S(=O)(=O)N1CCN(c2ncncc2F)CC1` [Compound 92] the value was 53 mm.

Staying with this assay, now noted: Table 5; Medium A, 28° C., two-day culture, 1000 μ/ml, 8 mm disc.
For the compound `CC(=C(Cn1cncn1)c1ccc(F)cc1F)S(=O)(=O)N1CCN(c2ccccc2)CC1` (single isomer, unassigned) [Compound 30, 1-[3-(2,4-difluorophenyl)-4-(1H-1,2,4-triazol-1-yl)-2-buten-2-ylsulfonyl]-4-phenylpiperazine], the “Diameter of growth-inhibition zone” value stood at 12 mm.
